Experimental findings from patent US20240279281A1, “Peptide Inhibitors of Interleukin-23 Receptor” (Janssen Pharmaceutica NV, priority 2023, published 2024) are described below.

In general, pIC50 refers to the IC50 on a negative log10 scale, so that one unit is a factor of ten.

For data set [1] the following is noted: disulfide bond; 20-membered ring; I2/AcOH; MeCN/H2O; 2.09 mM.
Data set [2] addresses T1, IL-23R (Homo sapiens, UniProt Q5VWK5).
T1 construct: host or cells: HEK293
T1 sequence (Q5VWK5 24-629): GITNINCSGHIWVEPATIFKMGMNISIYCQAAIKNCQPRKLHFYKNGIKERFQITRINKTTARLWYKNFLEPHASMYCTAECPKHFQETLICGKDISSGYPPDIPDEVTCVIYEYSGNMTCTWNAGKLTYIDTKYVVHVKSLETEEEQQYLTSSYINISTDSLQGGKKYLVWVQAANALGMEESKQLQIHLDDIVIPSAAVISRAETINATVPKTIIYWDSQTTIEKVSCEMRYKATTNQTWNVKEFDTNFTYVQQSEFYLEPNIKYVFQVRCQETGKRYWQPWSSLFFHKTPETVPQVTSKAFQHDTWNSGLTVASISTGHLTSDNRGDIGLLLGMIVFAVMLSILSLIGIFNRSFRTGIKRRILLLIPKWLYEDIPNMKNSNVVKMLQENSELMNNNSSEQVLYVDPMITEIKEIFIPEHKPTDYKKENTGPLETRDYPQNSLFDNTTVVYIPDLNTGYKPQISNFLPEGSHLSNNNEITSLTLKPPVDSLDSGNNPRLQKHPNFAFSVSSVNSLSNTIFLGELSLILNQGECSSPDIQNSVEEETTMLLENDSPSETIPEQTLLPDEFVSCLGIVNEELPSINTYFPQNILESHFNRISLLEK
The experiment in a line: IL23R Reporter Assay. The data set is classed as cell-based. As to conditions: HEK293 cells containing IL-23R, IL-12Rβ1 and STAT-inducible luciferase reporter; 10 ng/mL IL-23; 5 h; read-out: IC50. As for the experimental part: Compounds were serially diluted in 100% (v/v) DMSO) and plated using an Echo acoustic dispenser (Labcyte) into 1536-well non-treated black assay plates (Corning #9146). […] After 5 h at 37° C., 5% CO2, 95% relative humidity, cells were placed at 20° C. and treated with BioGlo reagent (Promega) according to the Manufacturer's instructions. Luminescence was measured on a Pherastar FSX (BMG LabTech).

The target of data set [3] is T2, IL-23-stimulated phosphorylated STAT3 in peripheral blood mononuclear cells (PBMCs) (Homo sapiens, UniProt Q5VWK5).
T2 sequence (Q5VWK5 24-629): T1 sequence (Q5VWK5 24-629)
The experiment in a line: PBMC pSTAT3 Assay. The data set is classed as cell-based. Particulars: PBMCs from healthy donors, IL-23 5 ng/mL, 30 minutes, read-out: PBMC pSTAT3 IC50. As for the experimental part: Cryopreserved peripheral blood mononuclear cells (PBMCs) from healthy donors were thawed and washed twice in ImmunoCult-XF T cell expansion medium (XF-TCEM) supplemented with CTL anti-aggregate wash. The cells were counted, resuspended at 2-6×10^5 cells per mL XF-TCEM supplemented with penicillin/streptomycin and 100 ng/mL IL-1β (BioLegend, 579404), and cultured in tissue culture flasks coated with anti-CD3 (eBioscience, 16-0037-85 or BD Pharmingen, 555329) at 37° C. in 5% CO2. On day 4 of culture, PBMCs were collected, washed twice in RPMI-1640 supplemented with 0.1% BSA (RPMI-BSA), and incubated in RPMI-BSA in upright tissue culture flasks for ˜4 hours at 37° C. in 5% CO2. Following this ‘starvation,’ a total of 6×10^4 cells in 30 μL RPMI-BSA was transferred into each well of a 384-well plate pre-spotted with peptide or DMSO. The cells were incubated for 30 minutes prior to the addition of IL-23 at a final concentration of 5 ng/mL. The cells were stimulated with cytokine for 30 minutes at 37° C. in 5% CO2, transferred onto ice for 10 minutes, and lysed. Cell lysates were stored at −80° C. until phosphorylated STAT3 was measured using the phospho-STAT panel kit (Meso Scale Discovery, K15202D).

pIC50: −log10 of the molar value. Starred links: 1 amine or outer side, 2 acyl side, 3 side chain; linkers in the order of their positions; H or OH if unused. Positions of bridges follow the written chain, without caps; N, C: chain ends. Non-standard residues stand in square brackets, D forms with d. Residues, ends and D or L forms follow the SMILES beside them. *: point of attachment. NH(CH2CH2O)2CH2CH2NMe3+ = C[N+](C)(C)CCOCCOCCN*; 2Nal(6-OH) = N[C@@H](Cc1ccc2cc(O)ccc2c1)C(=O)O; Trp(7-Me) = Cc1cccc2c(C[C@H](N)C(=O)O)c[nH]c12; Abu(4-yl) = O=C([C@H](CC[*:3])N[*:1])[*:2]; X9 = CN(CC*)C(=O)CCOCCOCC[N+](C)(C)C; AEF = NCCOc1ccc(C[C@H](N)C(=O)O)cc1; 3Pal = N[C@@H](Cc1cccnc1)C(=O)O; Lys(Me) = CNCCCC[C@H](N)C(=O)O; Pen = CC(C)(S)[C@H](N)C(=O)O; Thp = NC1(C(=O)O)CCOCC1; Ava = NCCCCC(=O)O; Sar = CNCC(=O)O A value given as a limit tells only on which side of the number the result lay.

Take “MeCO-Pen(3)-N(N(Me)2)-T-7MeW-Dab(NMecarn)-Pen(3)-AEF-6OH2Nal-THP-Dab(NMecarn)-N-3Pya-Sar-CON(Me)2”: the ring closure, yield after HPLC in data set [1] worked out at 23%.
Take `CC(=O)NCCCC[C@@H]1NC(=O)[C@H](Cc2c[nH]c3c(C)cccc23)NC(=O)[C@H]([C@@H](C)O)NC(=O)[C@@H]2CCCCNCCOc3ccc(cc3)C[C@@H](C(=O)N[C@@H](Cc3ccc4cc(O)ccc4c3)C(=O)NC3(C(=O)N[C@@H](CCCCNC(C)=O)C(=O)N[C@@H](CC(N)=O)C(=O)N[C@@H](Cc4cccnc4)C(=O)N(C)CC(N)=O)CCOCC3)NC(=O)[C@@H](NC1=O)C(C)(C)SSC(C)(C)[C@H](NC(=O)CCCCC[N+](C)(C)C)C(=O)N2` [compound 112, 5cpaCO-Pen(3)-K(5)-T-7MeW-K(Ac)-Pen(3)-AEF(5)-6OH2Nal-THP-K(Ac)-N-3Pya-Sar-CONH2]: the negative logarithm of the IC50 (pIC50) is > 8.00 in data set [2] and > 11.00 in data set [3].
In the case of `CC(=O)NCCCC[C@@H]1NC(=O)[C@H](Cc2c[nH]c3c(C)cccc23)NC(=O)[C@H]([C@@H](C)O)NC(=O)[C@@H]2CCC(=O)NCCOc3ccc(cc3)C[C@@H](C(=O)N[C@@H](Cc3ccc4cc(O)ccc4c3)C(=O)NC3(C(=O)N[C@@H](CCCCNC(C)=O)C(=O)N[C@@H](CC(N)=O)C(=O)N[C@@H](Cc4cccnc4)C(=O)N(C)CC(N)=O)CCOCC3)NC(=O)[C@@H](NC1=O)C(C)(C)SSC(C)(C)[C@H](NC(C)=O)C(=O)N2` [SEQ ID NO: 414, MeCO-Pen(3)-E(2)-T-7MeW-K(Ac)-Pen(3)-AEF(2)-6OH2Nal-THP-K(Ac)-N-3Pya-Sar-CONH2] (Ac-[Pen]ET[Trp(7-Me)]K(Ac)[Pen][AEF][2Nal(6-OH)][Thp]K(Ac)N[3Pal][Sar]-NH2; disulfide 1-6; lactam 2-7), the pIC50 in data set [2] was > 8.00; in data set [3] it was > 11.00.
For `C[C@@H](O)[C@@H]1NC(=O)[C@H](CC(N)=O)NC(=O)[C@@H]2CCSC[C@H](NC(=O)[C@H](CCC(N)=O)NC(=O)[C@H](Cc3c[nH]c4ccccc34)NC1=O)C(=O)N[C@@H](Cc1ccc(OCCN)cc1)C(=O)N[C@@H](Cc1ccc3cc(O)ccc3c1)C(=O)NC1(CCOCC1)C(=O)N[C@H](C(=O)N[C@@H](CC(N)=O)C(=O)N[C@@H](Cc1cccnc1)C(=O)N(C)CC(N)=O)CCC(=O)NCCCCC(=O)N2` [compound 172] ([Ava][Abu(4-yl)]NTWQC[AEF][2Nal(6-OH)][Thp]EN[3Pal][Sar]-NH2; thioether 2-7; lactam N-11), in that order: > 8.00 and > 11.00.
`CC(=O)N[C@@H]1C(=O)N[C@@H](CC(=O)N(C)C)C(=O)N[C@@H]([C@@H](C)O)C(=O)N[C@@H](Cc2c[nH]c3c(C)cccc23)C(=O)N[C@@H](CCCCN(C)C(C)=O)C(=O)N[C@H](C(=O)N[C@@H](Cc2ccc(OCCN(C)C(=O)CCOCCOCC[N+](C)(C)C)cc2)C(=O)N[C@@H](Cc2ccc3cc(O)ccc3c2)C(=O)NC2(C(=O)N[C@@H](CCCCN(C)C(C)=O)C(=O)N[C@@H](CC(N)=O)C(=O)N[C@@H](Cc3cccnc3)C(=O)N(C)CC(=O)NCCOCCOCC[N+](C)(C)C)CCOCC2)C(C)(C)SSC1(C)C` [compound 315, MeCO-Pen(3)-N(NMe2)-T-7MeW-K(NMeAc)-Pen(3)-AEF(NMePEG3a)-6OH2Nal-THP-K(NMeAc)-N-3Pya-Sar-CONH(PEG3a)] (Ac-[Pen]D(NMe2)T[Trp(7-Me)][Lys(Me)](Ac)[Pen]Y(X9)[2Nal(6-OH)][Thp][Lys(Me)](Ac)N[3Pal][Sar]-{NH(CH2CH2O)2CH2CH2NMe3+}; disulfide 1-6): the negative logarithm of the IC50 (pIC50) in data set [2] is > 8.00; in data set [3], 10.00 to 11.00.
